Experimental data from paper PMC10936602, “BaiJ and BaiB are key enzymes in the chenodeoxycholic acid 7α-dehydroxylation pathway in the gut microbe Clostridium scindens ATCC 35704” (Gut Microbes, 2024).

Legend:
BaiJ = biological target: T1, BaiJ ([Clostridium] scindens, UniProt B0NCC6); assay: LC/HRMS product quantification, single enzyme; assay type: biochemical; settings: reduction; NAD, NADP, NADH, NADPH, FMN, FAD, CoA, ATP, ADP 500 μM each; HEPES pH 7.5, 37 °C, anoxic
T1 construct: gene urdA; recombinant in E. coli BL21-CodonPlus(DE3)-RIPL, pET28b+ or modified pET28b+, His and/or Strep tag, FAD and FMN added before lysis
T1 sequence (B0NCC6 1-563): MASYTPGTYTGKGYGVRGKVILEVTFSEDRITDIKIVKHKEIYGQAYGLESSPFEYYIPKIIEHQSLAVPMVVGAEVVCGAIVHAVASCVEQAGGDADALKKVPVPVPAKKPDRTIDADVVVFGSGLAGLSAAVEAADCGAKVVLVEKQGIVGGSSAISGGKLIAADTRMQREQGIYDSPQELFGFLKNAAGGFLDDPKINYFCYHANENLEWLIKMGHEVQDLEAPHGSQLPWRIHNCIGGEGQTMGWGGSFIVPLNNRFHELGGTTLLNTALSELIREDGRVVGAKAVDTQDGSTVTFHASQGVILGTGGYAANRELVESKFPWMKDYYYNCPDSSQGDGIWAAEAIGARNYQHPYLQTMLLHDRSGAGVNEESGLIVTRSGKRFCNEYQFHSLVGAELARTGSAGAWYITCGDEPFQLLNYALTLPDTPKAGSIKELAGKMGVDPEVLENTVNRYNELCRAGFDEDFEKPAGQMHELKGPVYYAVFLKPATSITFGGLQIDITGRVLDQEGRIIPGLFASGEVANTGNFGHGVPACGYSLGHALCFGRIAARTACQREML

BaiB = biological target: T2, BaiB ([Clostridium] scindens, UniProt A0A494WIV0); assay: LC/HRMS substrate depletion and detection of CoA conjugate; assay type: biochemical; settings: CoA ligation; CoA and ATP; HEPES pH 7.5, anoxic, 18 h
T2 construct: recombinant in E. coli BL21-CodonPlus(DE3)-RIPL, pET28b+ or modified pET28b+, His and/or Strep tag
T2 sequence (A0A494WIV0 1-507): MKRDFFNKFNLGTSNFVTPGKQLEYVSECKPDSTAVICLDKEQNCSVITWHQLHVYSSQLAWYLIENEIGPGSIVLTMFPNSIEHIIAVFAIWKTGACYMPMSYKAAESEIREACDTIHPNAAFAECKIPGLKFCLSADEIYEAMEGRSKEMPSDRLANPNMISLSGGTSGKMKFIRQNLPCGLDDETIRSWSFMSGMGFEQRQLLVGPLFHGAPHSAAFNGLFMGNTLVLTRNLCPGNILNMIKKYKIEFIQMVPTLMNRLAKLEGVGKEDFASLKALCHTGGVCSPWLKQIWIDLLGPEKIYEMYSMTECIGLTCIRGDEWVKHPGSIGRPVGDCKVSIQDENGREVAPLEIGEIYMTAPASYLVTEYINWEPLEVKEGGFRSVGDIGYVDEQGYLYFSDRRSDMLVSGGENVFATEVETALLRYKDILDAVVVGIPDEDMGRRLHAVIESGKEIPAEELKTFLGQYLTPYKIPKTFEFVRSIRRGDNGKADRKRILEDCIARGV

SMILES: C[C@H](CCC(=O)O)[C@H]1CC[C@H]2[C@@H]3CCC4=CC(=O)CC[C@]4(C)[C@H]3CC[C@]12C [3-oxo-Δ^4-LCA]
- LC/HRMS product quantification, single enzyme (BaiJ): BaiJ reduces 3-oxo-Δ^4-LCA and forms 3-oxo-allo-LCA as the only reduced product

SMILES: C[C@H](CCC(=O)O)[C@H]1CC[C@H]2[C@@H]3[C@H](O)CC4=CC(=O)CC[C@]4(C)[C@H]3CC[C@]12C [3-oxo-Δ^4-CDCA]
- LC/HRMS substrate depletion and detection of CoA conjugate (BaiB): the concentration of 3-oxo-Δ^4-CDCA decreased significantly in the reaction with BaiB
